Measurements taken from patent publication US9688624B2, “DP2 antagonist and uses thereof” (Brickell Biotech, Inc., priority 2010, dated 2017).
Where a name gives a salt, the structure may show the parent alone. Read-outs that look alike come from different tables or passages of the source.

What was measured:
[1] = target: CYP2C19 (Homo sapiens (Human), UniProt P33261); experiment: Extracellular cytochrome P450 inhibition (microsomes); details: IC50 (μM), 2C19, mephenytoin 4′-hydroxylation
[2] = target: T1, CYP1A2 (Homo sapiens (Human), UniProt P05177); details: microsomes, pH 7.4
[3] = target: CYP3A4 (Homo sapiens (Human), UniProt P08684); experiment: Extracellular cytochrome P450 inhibition (microsomes); format: in vitro ADME
[4] = target: T1, CYP1A2; experiment: as above
[5] = target: CYP2C9 (Homo sapiens (Human), UniProt P11712); experiment: as above; format: in vitro ADME; details: 2C9, diclofenac 4′-hydroxylation
[6] = Capsule formulation pharmacokinetics in male Beagle dogs; format: in vivo; details: dog, fasted; for half-life: read-out: t1/2 24 hr (converted)
Experimental: In a separate study, male Beagle dogs were dosed with the capsule formulations as described herein.

[7] = tested on: allergen-induced asthma (OVA challenge); experiment: Guinea pig allergic asthma (OVA) model; format: in vivo
Experimental: Example 20: Guinea Pig Allergic Asthma Model
Compound 2 was evaluated in a guinea pig OVA model in order to determine efficacy in a setting of allergen-induced asthma. As an early indication of a pharmacodynamic response animals were challenged with DK-PGD2 2 hours post OVA challenge (2.5 hours post Compound 2 administration) and blood was collected 30 minutes later to assess leukocytes counts. […] OVA challenge caused a significant influx of cells in bronchoalveolar lavage fluid at 23.5 hr post-dose; there was no difference between animals that received OVA only versus those that received OVA plus DK-PGD2. The majority of cells were eosinophils and macrophages with a small, but significant proportion of neutrophils.

[8] = target: guinea pig DP2 receptor (Cavia porcellus, UniProt H0W1T0); experiment: In vitro DP2/CRTH2 radioligand ([3H]PGD2) membrane binding assay
Experimental: (§1) Example 15: In Vitro DP2/CRTH2 Binding Assay
The ability of Compound 1 to bind to the human DP2 receptor was assessed via a radioligand binding assay using [^3H]PGD2. HEK293 cells stably expressing recombinant human DP2 are resuspended in 10 mM Hepes, 7.4 containing 1 mM DTT, lysed and centrifuged at 75,000×g to pellet the membranes. The membranes are resuspended in 10 mM Hepes, 7.4 containing 1 mM DTT and 10% glycerol to approximately 5 mg protein/ml. Membranes (2-10 μg protein/well) are incubated in 96-well plates with 1 nM [^3H]PGD2 and Compound 1 in Assay Buffer (50 mM Hepes, 10 mM MnCl2, 1 mM EDTA, plus or minus 0.2% human serum albumin, pH 7.4) for 60 minutes at room temperature. The reactions are terminated by rapid filtration through Whatman GF/C glass fibre filter plates. The filter plates were pre-soaked in 0.33% polythylenimine for 30 minutes at room temperature then washed in Wash Buffer (50 mM Hepes, 0.5 M NaCl pH 7.4) prior to harvesting. After harvesting, the filter plates are washed 3 times with 1 ml cold Wash Buffer then dried. Scintillant is then added to the plates and the radioactivity retained on the filters is determined on a Packard TopCount (Perkin Elmer). Specific binding is determined as total radioactive binding minus non-specific binding in the presence of 10 μM PGD2. IC50s were determined using GraphPad prism analysis of drug titration curves. […]

[9] = Plasma concentrations in guinea pig allergic asthma model; format: in vivo; details: for concentration at 3 h: oral, 3 hours post dose, read-out: mean plasma Compound 1 concentration
Experimental: Plasma Compound 1 concentrations were determined 3 hours and 24 hours post dose. […] At 60 mg/kg, a mean plasma concentration of 371.7±303.8 was observed 3 hours post dose. At 100 mg/kg, a mean plasma concentration of 360.8±131.3 was observed 3 hours post dose.

[10] = target: DP2 receptor (Homo sapiens (Human), UniProt Q9Y5Y4); experiment: In vitro DP2/CRTH2 radioligand ([3H]PGD2) membrane binding assay
Experimental: as §1
The ability of Compound 1 to bind to the human DP2 receptor was assessed via a radioligand binding assay using [^3H]PGD2. HEK293 cells stably expressing recombinant human DP2 are resuspended in 10 mM Hepes, 7.4 containing 1 mM DTT, lysed and centrifuged at 75,000×g to pellet the membranes. The membranes are resuspended in 10 mM Hepes, 7.4 containing 1 mM DTT and 10% glycerol to approximately 5 mg protein/ml. […] The reactions are terminated by rapid filtration through Whatman GF/C glass fibre filter plates. The filter plates were pre-soaked in 0.33% polythylenimine for 30 minutes at room temperature then washed in Wash Buffer (50 mM Hepes, 0.5 M NaCl pH 7.4) prior to harvesting. After harvesting, the filter plates are washed 3 times with 1 ml cold Wash Buffer then dried. Scintillant is then added to the plates and the radioactivity retained on the filters is determined on a Packard TopCount (Perkin Elmer). Specific binding is determined as total radioactive binding minus non-specific binding in the presence of 10 μM PGD2. IC50s were determined using GraphPad prism analysis of drug titration curves. Mouse, rat and guinea pig DP2 receptors were also investigated.
(§2) The binding potency of Compound 1 is only slightly shifted in the presence of species-specific serum albumin.

[11] = target: mouse DP2 (Mus musculus (Mouse), UniProt Q9Z2J6); experiment: as above; details: average
Experimental: as §1
(§3) The ability of Compound 1 to bind to the human DP2 receptor was assessed via a radioligand binding assay using [^3H]PGD2. HEK293 cells stably expressing recombinant human DP2 are resuspended in 10 mM Hepes, 7.4 containing 1 mM DTT, lysed and centrifuged at 75,000×g to pellet the membranes. The membranes are resuspended in 10 mM Hepes, 7.4 containing 1 mM DTT and 10% glycerol to approximately 5 mg protein/ml. Membranes (2-10 μg protein/well) are incubated in 96-well plates with 1 nM [^3H]PGD2 and Compound 1 in Assay Buffer (50 mM Hepes, 10 mM MnCl2, 1 mM EDTA, plus or minus 0.2% human serum albumin, pH 7.4) for 60 minutes at room temperature. The reactions are terminated by rapid filtration through Whatman GF/C glass fibre filter plates. The filter plates were pre-soaked in 0.33% polythylenimine for 30 minutes at room temperature then washed in Wash Buffer (50 mM Hepes, 0.5 M NaCl pH 7.4) prior to harvesting. After harvesting, the filter plates are washed 3 times with 1 ml cold Wash Buffer then dried. Scintillant is then added to the plates and the radioactivity retained on the filters is determined on a Packard TopCount (Perkin Elmer). Specific binding is determined as total radioactive binding minus non-specific binding in the presence of 10 μM PGD2. IC50s were determined using GraphPad prism analysis of drug titration curves. Mouse, rat and guinea pig DP2 receptors were also investigated.
as §2

[12] = target: rat DP2 (Rattus norvegicus (Rat), UniProt Q6XKD3); experiment: as above; details: average
Experimental: as §1, §3, §2

[13] = male, Beagle, in vivo, po, Capsule, 5.6 mg/kg
[14] = male, Beagle, in vivo, po, EC-Capsule (L100-55), 5 mg/kg
[15] = male, Beagle, in vivo, IV saline, 2 mg/kg

Sequence of DP2 receptor (Q9Y5Y4 whole entry): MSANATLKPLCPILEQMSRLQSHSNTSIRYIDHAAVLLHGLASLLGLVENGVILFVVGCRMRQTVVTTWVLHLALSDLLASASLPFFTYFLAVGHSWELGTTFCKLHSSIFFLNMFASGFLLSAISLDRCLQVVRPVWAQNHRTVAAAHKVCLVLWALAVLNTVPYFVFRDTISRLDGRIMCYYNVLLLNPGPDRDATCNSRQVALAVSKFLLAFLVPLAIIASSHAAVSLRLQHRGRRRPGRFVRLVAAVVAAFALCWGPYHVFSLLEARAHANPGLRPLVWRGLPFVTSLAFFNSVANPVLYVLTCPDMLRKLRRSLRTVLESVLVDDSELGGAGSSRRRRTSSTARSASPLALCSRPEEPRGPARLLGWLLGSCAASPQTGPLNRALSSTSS
Sequence of CYP3A4 (P08684 whole entry): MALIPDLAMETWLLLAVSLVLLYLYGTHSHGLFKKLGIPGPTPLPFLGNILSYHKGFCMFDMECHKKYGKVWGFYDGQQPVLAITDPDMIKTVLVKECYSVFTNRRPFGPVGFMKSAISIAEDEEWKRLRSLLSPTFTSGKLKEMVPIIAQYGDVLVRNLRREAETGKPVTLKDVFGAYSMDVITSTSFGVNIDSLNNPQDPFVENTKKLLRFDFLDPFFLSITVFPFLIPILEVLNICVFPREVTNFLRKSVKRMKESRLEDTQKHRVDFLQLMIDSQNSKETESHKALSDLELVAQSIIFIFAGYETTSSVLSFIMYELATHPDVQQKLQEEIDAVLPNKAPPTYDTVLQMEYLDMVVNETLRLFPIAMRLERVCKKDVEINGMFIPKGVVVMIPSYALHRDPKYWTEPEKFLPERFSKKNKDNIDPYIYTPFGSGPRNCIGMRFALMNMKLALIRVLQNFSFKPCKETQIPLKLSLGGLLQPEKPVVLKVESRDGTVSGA
Sequence of rat DP2 (Q6XKD3 whole entry): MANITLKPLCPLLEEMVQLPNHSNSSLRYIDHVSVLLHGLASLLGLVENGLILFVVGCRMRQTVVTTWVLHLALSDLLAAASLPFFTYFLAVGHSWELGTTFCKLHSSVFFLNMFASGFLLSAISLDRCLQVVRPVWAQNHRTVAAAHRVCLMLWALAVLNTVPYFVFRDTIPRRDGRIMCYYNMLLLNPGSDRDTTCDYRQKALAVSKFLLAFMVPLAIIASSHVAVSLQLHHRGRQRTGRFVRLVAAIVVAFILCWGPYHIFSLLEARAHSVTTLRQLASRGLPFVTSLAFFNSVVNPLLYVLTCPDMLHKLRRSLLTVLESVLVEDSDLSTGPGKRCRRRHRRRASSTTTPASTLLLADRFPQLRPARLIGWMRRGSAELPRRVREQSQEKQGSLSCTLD
Sequence of CYP2C19 (P33261 whole entry): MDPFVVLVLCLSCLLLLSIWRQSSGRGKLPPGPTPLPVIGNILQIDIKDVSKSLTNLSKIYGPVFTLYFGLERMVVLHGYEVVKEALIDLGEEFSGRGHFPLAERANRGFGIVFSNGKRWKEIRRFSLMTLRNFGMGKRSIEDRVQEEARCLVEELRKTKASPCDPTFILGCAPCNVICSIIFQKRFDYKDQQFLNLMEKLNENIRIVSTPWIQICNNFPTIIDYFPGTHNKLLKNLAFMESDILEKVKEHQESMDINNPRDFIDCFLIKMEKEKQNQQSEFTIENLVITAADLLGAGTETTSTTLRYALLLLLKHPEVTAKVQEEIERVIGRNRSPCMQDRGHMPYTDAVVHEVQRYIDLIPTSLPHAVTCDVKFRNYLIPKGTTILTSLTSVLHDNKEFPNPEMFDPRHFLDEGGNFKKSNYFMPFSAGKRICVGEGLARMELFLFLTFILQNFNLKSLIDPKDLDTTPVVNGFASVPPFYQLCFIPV
T1 sequence (P05177 whole entry): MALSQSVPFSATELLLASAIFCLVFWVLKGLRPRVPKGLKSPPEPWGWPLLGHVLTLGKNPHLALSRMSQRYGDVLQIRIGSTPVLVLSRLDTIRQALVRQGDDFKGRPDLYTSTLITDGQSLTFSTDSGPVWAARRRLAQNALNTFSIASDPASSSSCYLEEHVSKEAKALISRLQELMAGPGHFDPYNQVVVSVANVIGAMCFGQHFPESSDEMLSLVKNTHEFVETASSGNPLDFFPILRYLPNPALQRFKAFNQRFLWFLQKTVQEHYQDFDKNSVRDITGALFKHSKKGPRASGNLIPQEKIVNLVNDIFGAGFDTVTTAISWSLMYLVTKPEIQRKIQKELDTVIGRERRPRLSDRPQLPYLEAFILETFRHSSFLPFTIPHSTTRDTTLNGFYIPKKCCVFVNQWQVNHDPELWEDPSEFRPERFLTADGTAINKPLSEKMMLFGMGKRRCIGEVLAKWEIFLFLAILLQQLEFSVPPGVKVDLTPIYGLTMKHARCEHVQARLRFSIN
Sequence of guinea pig DP2 receptor (H0W1T0 1-391): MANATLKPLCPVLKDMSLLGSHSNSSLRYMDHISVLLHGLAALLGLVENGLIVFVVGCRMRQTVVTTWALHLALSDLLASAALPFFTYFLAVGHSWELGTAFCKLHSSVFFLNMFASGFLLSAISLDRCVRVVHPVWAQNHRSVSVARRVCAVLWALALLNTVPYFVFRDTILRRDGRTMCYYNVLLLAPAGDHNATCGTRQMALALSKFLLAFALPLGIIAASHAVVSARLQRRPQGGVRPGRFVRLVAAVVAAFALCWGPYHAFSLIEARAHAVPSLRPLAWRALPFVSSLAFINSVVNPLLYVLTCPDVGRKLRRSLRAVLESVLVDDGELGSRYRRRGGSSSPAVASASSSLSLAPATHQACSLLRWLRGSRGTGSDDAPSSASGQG
Sequence of mouse DP2 (Q9Z2J6 whole entry): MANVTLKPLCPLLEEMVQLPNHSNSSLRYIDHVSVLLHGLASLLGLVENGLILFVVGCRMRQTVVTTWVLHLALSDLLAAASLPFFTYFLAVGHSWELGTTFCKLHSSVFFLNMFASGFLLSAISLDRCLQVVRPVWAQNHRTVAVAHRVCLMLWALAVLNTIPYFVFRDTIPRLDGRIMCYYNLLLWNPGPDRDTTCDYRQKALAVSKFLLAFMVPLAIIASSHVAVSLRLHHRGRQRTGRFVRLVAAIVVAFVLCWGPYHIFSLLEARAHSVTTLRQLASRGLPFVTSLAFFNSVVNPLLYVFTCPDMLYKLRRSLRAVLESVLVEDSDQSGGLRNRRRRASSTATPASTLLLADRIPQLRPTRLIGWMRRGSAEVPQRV
Sequence of CYP2C9 (P11712 whole entry): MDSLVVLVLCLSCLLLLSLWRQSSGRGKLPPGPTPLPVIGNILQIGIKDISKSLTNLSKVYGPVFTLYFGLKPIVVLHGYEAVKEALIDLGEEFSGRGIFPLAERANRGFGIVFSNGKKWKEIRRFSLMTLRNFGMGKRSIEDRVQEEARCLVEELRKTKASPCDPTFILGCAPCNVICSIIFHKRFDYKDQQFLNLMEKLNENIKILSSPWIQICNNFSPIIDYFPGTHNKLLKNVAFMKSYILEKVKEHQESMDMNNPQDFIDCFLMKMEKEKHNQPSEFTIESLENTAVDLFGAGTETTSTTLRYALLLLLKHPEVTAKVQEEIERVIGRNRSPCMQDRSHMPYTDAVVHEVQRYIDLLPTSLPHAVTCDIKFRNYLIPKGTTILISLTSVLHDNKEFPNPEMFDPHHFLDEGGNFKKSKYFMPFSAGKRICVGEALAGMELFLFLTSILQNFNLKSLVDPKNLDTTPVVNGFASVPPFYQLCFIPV

Question: What does the source list for `COc1ccc(CC(=O)O)cc1Oc1ccc(NC(=O)C(C)(C)C)cc1CSC(C)(C)C` [Compound 2, 2-(3-(2-((tert-butylthio)methyl)-4-(2,2-dimethyl-propionylamino)phenoxy)-4-methoxyphenyl)acetic acid, sodium salt]?
Answer: IC50 [1]: > 50 µM; IC50 [2]: > 50000 nM; IC50 ([3]; 3A4, midazolam 1-hydroxylation, read-out: IC50): > 50000 nM; IC50 ([3]; 3A4, testosterone 6β-hydroxylation, read-out: IC50): 26000 nM; IC50 ([3]; not a potent inhibitor, read-out: IC50, CYP3A4 (summary statement)): > 25000 nM; IC50 [4]: > 25000 nM; IC50 [5]: > 50000 nM; CO ([6]; IV saline, 2 mg/kg): 10.3 µg/mL; ClPl ([6]; IV saline, 2 mg/kg): 5.0 mL/min/kg; AUC [6, 13]: 14300 ng·h/mL; Cmax [6, 13]: 4800 ng/mL; Tmax [6, 13]: 2.1 h; bioavailability [6, 13]: 78.6%; half-life [6, 13]: 2.8 h; AUC [6, 14]: 20900 ng·h/mL; Cmax [6, 14]: 14400 ng/mL; Tmax [6, 14]: 1 h; bioavailability [6, 14]: 128%; half-life [6, 14]: 2.4 h; AUC [6, 15]: 6500 ng·h/mL; Tmax [6, 15]: 0.1 h; Vd ([6]; male, Beagle, in vivo, IV saline, 2 mg/kg, read-out: VDss): 0.9 L/kg; half-life [6, 15]: 5.1 h; eosinophils and neutrophils in bronchoalveolar lavage fluid ([7]; 100 mg/kg PO): significantly reduced; total cellular influx in bronchoalveolar lavage fluid ([7]; 30, 60, and 100 mg/kg PO, significant at 60 and 100 mg/kg, 23.5 hr post-dose): dose dependently inhibited; DK-PGD2-induced increase in blood leukocytes ([7]; 30, 60, and 100 mg/kg, 2.5 hours post administration): blocked

Question: Which IC50 ([8]; 0.2% guinea pig serum albumin, read-out: IC50, radioligand membrane binding on guinea pig DP2) does the source give for `COc1ccc(CC(=O)O)cc1Oc1ccc(NC(=O)C(C)(C)C)cc1CSC(C)(C)C` [Compound 1, 2-(3-(2-((tert-butylthio)methyl)-4-(2,2-dimethyl-propionylamino)phenoxy)-4-methoxyphenyl)acetic acid] here?
Answer: 20.3 nM

Question: What about the IC50 ([8]; average, without serum albumin, read-out: IC50, inhibition of radiolabeled PGD2 binding to guinea pig DP2) of the same compound?
Answer: 10.6 nM

Question: What about the concentration at 24 h ([9]; 24 hours after oral dose, each dose amount, below lower limit of quantitation, read-out: plasma Compound 1 concentration) of the same compound?
Answer: < 40 nM

Question: And the concentration at 3 h ([9]; 30 mg/kg)?
Answer: 107 ± 31.7 nM

Question: And the concentration at 3 h ([9]; 60 mg/kg)?
Answer: 372 ± 304 nM

Question: What about the concentration at 3 h ([9]; 100 mg/kg) of the same compound?
Answer: 361 ± 131 nM

Question: And the IC50 ([10]; average, 0.2% species-specific albumin, read-out: IC50, radioligand membrane binding on human DP2)?
Answer: 19.7 nM

Question: And the IC50 ([10]; average, without serum albumin, read-out: IC50, inhibition of radiolabeled PGD2 binding to human DP2)?
Answer: 5.2 nM

Question: And the IC50 ([10]; in the presence of 0.5% serum albumin, read-out: IC50, binding to DP2)?
Answer: 19.7 nM

Question: And the IC50 ([11]; 0.2% species-specific albumin, read-out: IC50, radioligand membrane binding on mouse DP2)?
Answer: 11.4 nM

Question: What about the IC50 ([11]; without serum albumin, read-out: IC50, inhibition of radiolabeled PGD2 binding to mouse DP2) of the same compound?
Answer: 9.7 nM

Question: And the IC50 ([12]; 0.2% species-specific albumin, read-out: IC50, radioligand membrane binding on rat DP2)?
Answer: 10.4 nM

Question: And the IC50 ([12]; without serum albumin, read-out: IC50, inhibition of radiolabeled PGD2 binding to rat DP2)?
Answer: 7 nM
